Results as given in patent US20260022142A1, “MACROCYCLIC IMMUNOMODULATORS” (Bristol-Myers Squibb Company, priority 2022, published 2026).
Bridge positions count the residues as written; N and C are the ends. Square brackets hold non-standard residues; d marks the D form. Peptide text beside a SMILES is read from it. * marks the point of attachment. ξ: configuration not given here. Bip = N[C@@H](Cc1ccc(-c2ccccc2)cc1)C(=O)O; Phe(3-Me) = Cc1cccc(C[C@H](N)C(=O)O)c1; Cha = N[C@@H](CC1CCCCC1)C(=O)O; dOrn = NCCC[C@@H](N)C(=O)O; dDab = NCC[C@@H](N)C(=O)O; Carboxymethyl = O=C(O)C*; Orn = NCCC[C@H](N)C(=O)O; dDap = NC[C@@H](N)C(=O)O; Aun = NCCCCCCCCCCC(=O)O; Dap = NC[C@H](N)C(=O)O; AEEA = NCCOCCOCC(=O)O; ξC = NC(CS)C(=O)O

Target: T1, PD-1/PD-L1 interaction (PE-labeled human PD-L1-Ig binding to Jurkat cell line over-expressing human PD-1) (Homo sapiens, UniProt Q15116)
T1 construct: expressed in transfected cells; host or cells: Jurkat
Test: Jurkat-PD-1 Cell Binding High-Content Screening Assay (CBA)
Assay type: cell-based
Settings: Jurkat cell line over-expressing human PD-1; PE-labeled PD-L1-Ig 20 nM final; read-out: Jurkat hPD1-PDL1 IC50
In short: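 Human PD-L1-Ig carrying a covalent PE label on its Ig tag serves as the probe, applied at 20 nM final to compound-treated (2 h, 37° C) Jurkat-hPD-1 cells in medium with 10% fetal calf serum. After one hour, fixation and nuclear staining precede high-content image analysis.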

T1 sequence (Q15116 25-288): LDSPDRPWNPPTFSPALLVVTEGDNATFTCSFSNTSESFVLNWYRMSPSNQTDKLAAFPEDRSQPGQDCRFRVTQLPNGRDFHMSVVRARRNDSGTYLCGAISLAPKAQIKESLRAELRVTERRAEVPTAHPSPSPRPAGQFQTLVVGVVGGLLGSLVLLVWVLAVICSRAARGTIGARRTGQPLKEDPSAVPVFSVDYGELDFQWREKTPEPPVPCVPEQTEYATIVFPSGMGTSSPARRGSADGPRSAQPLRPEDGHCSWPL

Compared with `Cc1cccc(C[C@@H]2NC(=O)[C@H](CC(=O)O)NC(=O)[C@H](Cc3ccc(OCC(=O)O)cc3)NC(=O)[C@H](CN)NC(=O)CSC[C@@H](C(=O)N[C@@H](C)C(=O)N[C@@H](CO)C(=O)NCCCCCCCCCCC(=O)O)NC(=O)[C@H]([C@@H](C)O)NC(=O)[C@H](C(C)C)NC(=O)[C@H](CC3CCCCC3)NC(=O)[C@H](Cc3cnc[nH]3)NC(=O)[C@@H](CC(C)C)NC(=O)[C@H](CCCN)NC(=O)[C@H](C(C)C)NC(=O)[C@H](Cc3ccc(-c4ccccc4)cc3)NC(=O)[C@H](C(C)C)NC2=O)c1` [Compound 1115] ({CH2CO}-[Dap]Y(Carboxymethyl)D[Phe(3-Me)]V[Bip]V[Orn][dL]H[Cha]VTCAS[Aun]-OH; thioether N-14), `CC(C)C[C@H]1NC(=O)[C@H](CCCN)NC(=O)[C@H](C(C)C)NC(=O)[C@H](Cc2ccc(-c3ccccc3)cc2)NC(=O)[C@H](C(C)C)NC(=O)[C@H](Cc2c[nH]c3ccccc23)NC(=O)[C@H](CC(=O)O)NC(=O)[C@H](Cc2ccc(OCC(=O)O)cc2)NC(=O)[C@H](CN)NC(=O)CSCC(C(=O)N[C@H](CO)C(=O)NCCCCCCCCCCC(=O)O)NC(=O)[C@H]([C@@H](C)O)NC(=O)[C@H](C(C)C)NC(=O)[C@H](CC2CCCCC2)NC(=O)[C@H](Cc2cnc[nH]2)NC1=O` (stereo partly drawn) [Compound 1123] ({CH2CO}-[Dap]Y(Carboxymethyl)DWV[Bip]V[Orn][dL]H[Cha]VT[ξC][dS][Aun]-OH; thioether N-14) is 1.9-fold higher in IC50: 26 nM for the first, 48.4 nM for the second. The first is the more potent here.

`CC(C)C[C@H]1NC(=O)[C@H](CCCN)NC(=O)[C@H](C(C)C)NC(=O)[C@H](Cc2ccc(-c3ccccc3)cc2)NC(=O)[C@H](C(C)C)NC(=O)[C@H](Cc2c[nH]c3ccccc23)NC(=O)[C@H](CC(=O)O)NC(=O)[C@H](Cc2ccc(OCC(=O)O)cc2)NC(=O)[C@H](CN)NC(=O)CSCC(C(=O)N[C@H](C)C(=O)NCCCCCCCCCCC(=O)O)NC(=O)[C@H]([C@@H](C)O)NC(=O)[C@H](C(C)C)NC(=O)[C@H](CC2CCCCC2)NC(=O)[C@H](Cc2cnc[nH]2)NC1=O` (some centres unmarked) [Compound 1116] and `CC(C)C[C@H]1NC(=O)[C@H](CCCN)NC(=O)[C@H](C(C)C)NC(=O)[C@H](Cc2ccc(-c3ccccc3)cc2)NC(=O)[C@H](C(C)C)NC(=O)[C@H](Cc2c[nH]c3ccccc23)NC(=O)[C@H](CC(=O)O)NC(=O)[C@H](Cc2ccc(OCC(=O)O)cc2)NC(=O)[C@H](CN)NC(=O)CSCC(C(=O)N[C@H](CN)C(=O)NCCCCCCCCCCC(=O)O)NC(=O)[C@H]([C@@H](C)O)NC(=O)[C@H](C(C)C)NC(=O)[C@H](CC2CCCCC2)NC(=O)[C@H](Cc2cnc[nH]2)NC1=O` (stereo partly drawn) [Compound 1117] ({CH2CO}-[Dap]Y(Carboxymethyl)DWV[Bip]V[Orn][dL]H[Cha]VT[ξC][dDap][Aun]-OH; thioether N-14) are within 1.5-fold of each other in IC50: 37.6 nM for the first, 48.4 nM for the second.

Going from `CC(C)C[C@H]1NC(=O)[C@H](CCCN)NC(=O)[C@H](C(C)C)NC(=O)[C@H](Cc2ccc(-c3ccccc3)cc2)NC(=O)[C@H](C(C)C)NC(=O)[C@H](Cc2c[nH]c3ccccc23)NC(=O)[C@H](CC(=O)O)NC(=O)[C@H](Cc2ccc(OCC(=O)O)cc2)NC(=O)[C@H](CN)NC(=O)CSCC(C(=O)N[C@H](CCN)C(=O)NCCCCCCCCCCC(=O)O)NC(=O)[C@H]([C@@H](C)O)NC(=O)[C@H](C(C)C)NC(=O)[C@H](CC2CCCCC2)NC(=O)[C@H](Cc2cnc[nH]2)NC1=O` (stereo partly drawn) [Compound 1118] ({CH2CO}-[Dap]Y(Carboxymethyl)DWV[Bip]V[Orn][dL]H[Cha]VT[ξC][dDab][Aun]-OH; thioether N-14) to `CC(C)C[C@H]1NC(=O)[C@H](CCCN)NC(=O)[C@H](C(C)C)NC(=O)[C@H](Cc2ccc(-c3ccccc3)cc2)NC(=O)[C@H](C(C)C)NC(=O)[C@H](Cc2c[nH]c3ccccc23)NC(=O)[C@H](CC(=O)O)NC(=O)[C@H](Cc2ccc(OCC(=O)O)cc2)NC(=O)[C@H](CN)NC(=O)CSCC(C(=O)N[C@H](CCCN)C(=O)NCCCCCCCCCCC(=O)O)NC(=O)[C@H]([C@@H](C)O)NC(=O)[C@H](C(C)C)NC(=O)[C@H](CC2CCCCC2)NC(=O)[C@H](Cc2cnc[nH]2)NC1=O` (stereo partly drawn) [Compound 1119] ({CH2CO}-[Dap]Y(Carboxymethyl)DWV[Bip]V[Orn][dL]H[Cha]VT[ξC][dOrn][Aun]-OH; thioether N-14), the IC50 rises from 30.7 nM to 57.5 nM (1.9-fold). The first is the more potent here.

`CC(C)C[C@H]1NC(=O)[C@H](CCCN)NC(=O)[C@H](C(C)C)NC(=O)[C@H](Cc2ccc(-c3ccccc3)cc2)NC(=O)[C@H](C(C)C)NC(=O)[C@H](Cc2c[nH]c3ccccc23)NC(=O)[C@H](CC(=O)O)NC(=O)[C@H](Cc2ccc(OCC(=O)O)cc2)NC(=O)[C@H](CN)NC(=O)CSCC(C(=O)N[C@H](CCCCN)C(=O)NCCCCCCCCCCC(=O)O)NC(=O)[C@H]([C@@H](C)O)NC(=O)[C@H](C(C)C)NC(=O)[C@H](CC2CCCCC2)NC(=O)[C@H](Cc2cnc[nH]2)NC1=O` (stereo partly drawn) [Compound 1120] ({CH2CO}-[Dap]Y(Carboxymethyl)DWV[Bip]V[Orn][dL]H[Cha]VT[ξC][dK][Aun]-OH; thioether N-14) and `CC(C)C[C@H]1NC(=O)[C@H](CCCN)NC(=O)[C@H](C(C)C)NC(=O)[C@H](Cc2ccc(-c3ccccc3)cc2)NC(=O)[C@H](C(C)C)NC(=O)[C@H](Cc2c[nH]c3ccccc23)NC(=O)[C@H](CC(=O)O)NC(=O)[C@H](Cc2ccc(OCC(=O)O)cc2)NC(=O)[C@H](CN)NC(=O)CSCC(C(=O)N[C@H](CCC(=O)O)C(=O)NCCCCCCCCCCC(=O)O)NC(=O)[C@H]([C@@H](C)O)NC(=O)[C@H](C(C)C)NC(=O)[C@H](CC2CCCCC2)NC(=O)[C@H](Cc2cnc[nH]2)NC1=O` (stereo partly drawn) [Compound 1122] ({CH2CO}-[Dap]Y(Carboxymethyl)DWV[Bip]V[Orn][dL]H[Cha]VT[ξC][dE][Aun]-OH; thioether N-14) are within 1.5-fold of each other in IC50: 40.9 nM for the first, 42.4 nM for the second.

`CC(C)C[C@H]1NC(=O)[C@H](CCCN)NC(=O)[C@H](C(C)C)NC(=O)[C@H](Cc2ccc(-c3ccccc3)cc2)NC(=O)[C@H](C(C)C)NC(=O)[C@H](Cc2c[nH]c3ccccc23)NC(=O)[C@H](CC(=O)O)NC(=O)[C@H](Cc2ccc(OCC(=O)O)cc2)NC(=O)[C@H](CN)NC(=O)CSCC(C(=O)N[C@H](CC(=O)O)C(=O)NCCCCCCCCCCC(=O)O)NC(=O)[C@H]([C@@H](C)O)NC(=O)[C@H](C(C)C)NC(=O)[C@H](CC2CCCCC2)NC(=O)[C@H](Cc2cnc[nH]2)NC1=O` (stereo partly drawn) [Compound 1121] ({CH2CO}-[Dap]Y(Carboxymethyl)DWV[Bip]V[Orn][dL]H[Cha]VT[ξC][dD][Aun]-OH; thioether N-14) and `CC(C)C[C@H]1NC(=O)[C@H](CCCN)NC(=O)[C@H](C(C)C)NC(=O)[C@H](Cc2ccc(-c3ccccc3)cc2)NC(=O)[C@H](C(C)C)NC(=O)[C@H](Cc2c[nH]c3ccccc23)NC(=O)[C@H](CC(=O)O)NC(=O)[C@H](Cc2ccc(OCC(=O)O)cc2)NC(=O)[C@H](CN)NC(=O)CSCC(C(=O)N[C@H](CC(N)=O)C(=O)NCCCCCCCCCCC(=O)O)NC(=O)[C@H]([C@@H](C)O)NC(=O)[C@H](C(C)C)NC(=O)[C@H](CC2CCCCC2)NC(=O)[C@H](Cc2cnc[nH]2)NC1=O` (stereo partly drawn) [Compound 1125] ({CH2CO}-[Dap]Y(Carboxymethyl)DWV[Bip]V[Orn][dL]H[Cha]VT[ξC][dN][Aun]-OH; thioether N-14) are within 1.5-fold of each other in IC50: 27.4 nM for the first, 35.6 nM for the second.

Going from `CC(C)C[C@H]1NC(=O)[C@H](CCCN)NC(=O)[C@H](C(C)C)NC(=O)[C@H](Cc2ccc(-c3ccccc3)cc2)NC(=O)[C@H](C(C)C)NC(=O)[C@H](Cc2c[nH]c3ccccc23)NC(=O)[C@H](CC(=O)O)NC(=O)[C@H](Cc2ccc(OCC(=O)O)cc2)NC(=O)[C@H](CN)NC(=O)CSC[C@@H](C(=O)N[C@H](Cc2cnc[nH]2)C(=O)NCCCCCCCCCCC(=O)O)NC(=O)[C@H]([C@@H](C)O)NC(=O)[C@H](C(C)C)NC(=O)[C@H](CC2CCCCC2)NC(=O)[C@H](Cc2cnc[nH]2)NC1=O` [Compound 1124] ({CH2CO}-[Dap]Y(Carboxymethyl)DWV[Bip]V[Orn][dL]H[Cha]VTC[dH][Aun]-OH; thioether N-14) to `CC(C)C[C@H]1NC(=O)[C@H](CCCN)NC(=O)[C@H](C(C)C)NC(=O)[C@H](Cc2ccc(-c3ccccc3)cc2)NC(=O)[C@H](C(C)C)NC(=O)[C@H](Cc2c[nH]c3ccccc23)NC(=O)[C@H](CC(=O)O)NC(=O)[C@H](Cc2ccc(OCC(=O)O)cc2)NC(=O)[C@H](CN)NC(=O)CSCC(C(=O)N[C@@H](Cc2cnc[nH]2)C(=O)NCCCCCCCCCCC(=O)O)NC(=O)[C@H]([C@@H](C)O)NC(=O)[C@H](C(C)C)NC(=O)[C@H](CC2CCCCC2)NC(=O)[C@H](Cc2cnc[nH]2)NC1=O` (stereo partly drawn) [Compound 1126] ({CH2CO}-[Dap]Y(Carboxymethyl)DWV[Bip]V[Orn][dL]H[Cha]VT[ξC]H[Aun]-OH; thioether N-14), the IC50 rises from 38.2 nM to 74 nM (1.9-fold).

`CC(C)C[C@H]1NC(=O)[C@H](CCCN)NC(=O)[C@H](C(C)C)NC(=O)[C@H](Cc2ccc(-c3ccccc3)cc2)NC(=O)[C@H](C(C)C)NC(=O)[C@H](Cc2c[nH]c3ccccc23)NC(=O)[C@H](CC(=O)O)NC(=O)[C@H](Cc2ccc(OCC(=O)O)cc2)NC(=O)[C@H](CN)NC(=O)CSC[C@@H](C(=O)NCCOCCOCC(=O)N[C@H](C)C(=O)NCCCCCCCCCCC(=O)O)NC(=O)[C@H]([C@@H](C)O)NC(=O)[C@H](C(C)C)NC(=O)[C@H](CC2CCCCC2)NC(=O)[C@H](Cc2cnc[nH]2)NC1=O` [Compound 1127] ({CH2CO}-[Dap]Y(Carboxymethyl)DWV[Bip]V[Orn][dL]H[Cha]VTC[AEEA][dA][Aun]-OH; thioether N-14) and `CC(C)C[C@H]1NC(=O)[C@H](CCCN)NC(=O)[C@H](C(C)C)NC(=O)[C@H](Cc2ccc(-c3ccccc3)cc2)NC(=O)[C@H](C(C)C)NC(=O)[C@H](Cc2c[nH]c3ccccc23)NC(=O)[C@H](CC(=O)O)NC(=O)[C@H](Cc2ccc(OCC(=O)O)cc2)NC(=O)[C@H](CN)NC(=O)CSC[C@@H](C(=O)NCCOCCOCC(=O)N[C@H](CN)C(=O)NCCCCCCCCCCC(=O)O)NC(=O)[C@H]([C@@H](C)O)NC(=O)[C@H](C(C)C)NC(=O)[C@H](CC2CCCCC2)NC(=O)[C@H](Cc2cnc[nH]2)NC1=O` [Compound 1128] ({CH2CO}-[Dap]Y(Carboxymethyl)DWV[Bip]V[Orn][dL]H[Cha]VTC[AEEA][dDap][Aun]-OH; thioether N-14) are within 1.5-fold of each other in IC50: 25.6 nM for the first, 28.7 nM for the second.
